The test system of data set [1] is Desulfovibrio desulfuricans (vulgaris) (ATCC 7757). Nature of the data set: Biocidal efficacy against sulfur-reducing bacteria in 0.1 wt % polyacrylamide (colony population analysis, CFU). In kind it is cell-based. As to conditions: not a side-by-side comparative study. As for the experimental part: Example 1 illustrates the biocidal efficacy of peracetic acid, compared with glutaraldehyde, against a strain of sulfur-reducing bacteria, Desulfovibrio desulfuricans (vulgaris), present in an aqueous solution also containing 0.1 wt % polyacrylamide polymer. A range of peracetic acid and glutaraldehyde concentrations were evaluated for biocidal efficacy: 5, 10, 30, 150 and 300 ppm peracetic acid and 25 and 500 ppm glutaraldehyde.
The dilute aqueous polyacrylamide was prepared using a 50 wt % polyacrylamide solution in water, with the polyacrylamide having an average molecular weight ˜10,000 (Aldrich No. 434949, Sigma-Aldrich, St. Louis, Mo.). The peracetic acid was Vigor Ox® SP-15 antimicrobial agent, containing about 15-17 wt % peracetic acid, 9-11 wt % hydrogen peroxide and 33-38 wt % acetic acid in water (FMC Corporation, Philadelphia, Pa.), and this peracetic acid solution was diluted to 5, 10, 30, 150 and 300 ppm peracetic acid for the various evaluations. The glutaraldehyde used in this Example 1 was a 25 wt % glutaraldehyde solution in water (Sigma-Aldrich No. G4004, Sigma-Aldrich, St. Louis, Mo.), diluted to either 25 or 500 ppm for the evaluations. […]
Peracetic acid and glutaraldehyde were next evaluated for biocidal efficacy against the sulfur-reducing bacterium Desulfovibrio vulgaris. […]

The conditions of data set [2]: at 25° C.; cited from earlier work.

For the substance Peracetic acid, in data set [1], the “biocidal efficacy against D. vulgaris compared with the glutaraldehyde treatment” value was “at least equivalent in performance”. Also, the pKa entry in data set [2] is “about 8.2”.

The values above are taken from patent US9018142B2, “Oil-field biocide method utilizing a peracid” (PeroxyChem LLC, priority 2008, dated 2015).
